Measurements: patent US20230192706A1, “BICYCLIC AMINES AS CDK2 INHIBITORS” (Incyte Corporation, priority 2021, published 2023)

Each molecule was assayed against T1, CDK2/Cyclin E1 (Homo sapiens, UniProt P24941) (assay: CDK2/Cyclin E1 HTRF enzyme activity assay). Details: 1 mM ATP; CDK2/Cyclin E1 0.25 nM; 60 minutes at room temperature.
T1 construct: full-length human CDK2 co-expressed as N-terminal GST-tagged protein; GST (N); purchased Carna 04-165; host or cells: baculovirus expression system
Type: biochemical
Experimental: CDK2/Cyclin E1 enzyme activity assays utilize full-length human CDK2 co-expressed as N-terminal GST-tagged protein with FLAG-Cyclin E1 in a baculovirus expression system (Carna Product Number 04-165). Assays were conducted in white 384-well polystyrene plates in a final reaction volume of 8 µL. CDK2/Cyclin E1 (0.25 nM) was incubated with the compounds of the Examples (40 nL serially diluted in DMSO) in the presence of ATP (50 µM or 1 mM) and 50 nM ULight^Tm-labeled eIF4E-binding protein 1 (THR37/46) peptide (PerkinElmer) in assay buffer (containing 50 mM HEPES pH 7.5, 1 mM EGTA, 10 mM MgCl2, 2 mM DTT, 0.05 mg/mL BSA, and 0.01% Tween 20) for 60 minutes at room temperature. The reactions were stopped by the addition of EDTA and Europium-labeled anti-phospho-4E-BP1 antibody (PerkinElmer), for a final concentration of 15 mM and 1.5 nM, respectively. HTRF signals were read after 1 hour at room temperature on a PHERAstar FS plate reader (BMG Labtech). Data was analyzed with IDBS XLFit and GraphPad Prism 5.0 software using a three or four parameter dose response curve to determine IC50 for each compound.

Row | Structure (SMILES) | IC50
1 | Cc1cc(-c2c(-c3cn[nH]c3)ccn3nc(NC4CCOCC4)nc23)ccc1C#N [Example 1, 4-(7-(1H-Pyrazol-4-yl)-2-((tetrahydro-2H-pyran-4-yl)aminoamino)-[1,2,4]triazolo[1,5-a]pyridin-8-yl)-2-methylbenzonitrile] | < 10 nM
2 | Cc1cc(-c2c(-c3cn[nH]c3)ccn3nc(N[C@H]4CCOC[C@H]4F)nc23)c(F)cc1C#N [Example 2, 5-Fluoro-4-(2-(((3S,4S)-3-fluorotetrahydro-2H-pyran-4-yl)amino)-7-(1H-pyrazol-4-yl)-[1,2,4]triazolo[1,5-a]pyridin-8-yl)-2-methylbenzonitrile] | < 10 nM
3 | F[C@@H]1CCN(c2c(-c3cn[nH]c3)ccn3nc(N[C@H]4CCOC[C@H]4F)nc23)C1 [Example 3, 8—((R)—3-Fluoropyrrolidin-1-yl)-N((3S,4S)-3-fluorotetrahydro-2H-pyran-4-yl)-7-(1H-pyrazol-4-yl)-[1,2,4]triazolo[1,5-α]pyridin-2-amine] | < 10 nM
4 | F[C@@H]1COCC[C@@H]1Nc1nc2c(N3CCCC(F)(F)C3)c(-c3cn[nH]c3)ccn2n1 [Example 4, 8-(3,3-Difluoropiperidin-1-yl)-N-((3S,4S)-3-fluorotetrahydro-2H-pyran-4-yl)-7-(1H-pyrazol-4-yl)-[1,2,4]triazolo[1,5-α]pyridin-2-amine] | < 10 nM
5 | FC(F)C1(Oc2c(-c3cn[nH]c3)ncc3nc(N[C@H]4CCOC[C@H]4F)nn23)CCC1 [Example 10, 5-(1-(Difluoromethyl)cyclobutoxy)-N-((3S,4S)-3-fluorotetrahydro-2H-pyran-4-yl)-6-(1H-pyrazol-4-yl)-[1,2,4]triazolo[1,5-α]pyrazin-2-amine] | < 10 nM
6 | FC(F)C1(Oc2c(-c3cn[nH]c3)ncc3nc(NC4CCOCC4)nn23)CCC1 [Example 11, 5-(1-(Difluoromethyl)cyclobutoxy)-6-(1H-pyrazol-4-yl)-N-(tetrahydro-2H-pyran-4-yl)-[1,2,4] triazolo [1,5-α] pyrazin-2-amine] | < 10 nM

The next lines start with the values.

Row | IC50 | Structure (SMILES)
7 | < 10 nM | CC(C)Oc1c(-c2cn[nH]c2)ncn2nc(NC3CCOC(C)C3)nc12 (single isomer, unassigned) [Example 6, 8-Isopropoxy-N-(2-methyltetrahydro-2H-pyran-4-yl)-7-(1H-pyrazol-4-yl)-[1,2,4]triazolo[1,5-c]pyrimidin-2-amine]
8 | < 10 nM | CC(C)Oc1c(-c2cn[nH]c2)ccn2nc(N[C@H]3CCOC[C@H]3F)nc12 [Example 5, N-((3S,4S)-3-Fluorotetrahydro-2H-pyran-4-yl)-8-isopropoxy-7-(1H-pyrazol-4-yl)-[1,2,4]triazolo[1,5-α]pyridin-2-amine]
9 | < 10 nM | CC(C)Oc1c(-c2cn[nH]c2)ncn2nc(N[C@H]3CCOC[C@H]3F)nc12 [Example 7, N-((3S, 4S)-3-Fluorotetrahydro-2H-pyran-4-yl)-8-isopropoxy-7-(1H-pyrazol-4-yl)-[1,2,4]triazolo[1,5-c]pyrimidin-2-amine]
10 | < 10 nM | C[C@H](Oc1c(-c2cn[nH]c2)ncc2nc(N[C@H]3CCOC[C@H]3F)nn12)C(F)(F)F [Example 8, N-((3S,4S)-3-Fluorotetrahydro-2H-pyran-4-yl)-6-(1H-pyrazol-4-yl)-5-(((5)-1,1,1-trifluoropropan-2-yl)oxy)-[1,2,4]triazolo[1,5-α]pyrazin-2-amine]
11 | < 10 nM | C[C@@H](Oc1c(-c2cn[nH]c2)ncc2nc(N[C@H]3CCOC[C@H]3F)nn12)C(F)(F)F [Example 9, N-((3S,4S)-3-Fluorotetrahydro-2H-pyran-4-yl)-6-(1H-pyrazol-4-yl)-5—(((R)—1,1,1-trifluoropropan-2-yl)oxy)-[1,2,4]triazolo[1,5-α]pyrazin-2-amine]
12 | < 10 nM | CC(C)Oc1c(-c2cn[nH]c2)ncc2nc(N[C@H]3CCOC[C@H]3F)nn12 [Example 12, N-((3S,4S)-3-Fluorotetrahydro-2H-pyran-4-yl)-5-isopropoxy-6-(1H-pyrazol-4-yl)-[1,2,4]triazolo[1,5-α] pyrazin-2-amine]
13 | < 10 nM | F[C@@H]1COCC[C@@H]1Nc1nc2cnc(-c3cn[nH]c3)c(N3CCCCC3)n2n1 [Example 13, N-((3S,4S)-3-Fluorotetrahydro-2H-pyran-4-yl)-5-(piperidin-1-yl)-6-(1H-pyrazol-4-yl)-[1,2,4]triazolo[1,5-α]pyrazin-2-amine]
